# Earlier results as cited in US20060106070A1, “Novel pyridine-based metal chelators as antiviral agents” (Bioflexis, LLC, priority 2004, published 2006).
# How the values were obtained:
# HIV-1 integrase [1] = molecular target: T1, HIV-1 integrase (Human immunodeficiency virus type 1 group M subtype B, UniProt P12497); conditions: result in words
# T1 construct: HIV-1 recombinant IN (HIV-1NL 4-3 Integrase); purchased NIH AIDS Reagent program 2959
# HIV-1 integrase [2] = molecular target: T1, HIV-1 integrase; conditions: result in words; remark: listed apart in the source
SMILES,inhibition of 3′ processing (HIV-1 integrase [1]),inhibition of strand transfer reaction (HIV-1 integrase [2])
"O=C(O)C(=O)CC(=O)c1cc(OCc2ccccc2)cc(OCc2ccccc2)c1 [L-708, 906]",do not inhibit 3′ processing,inhibit strand transfer reaction
"O=C(O)C(=O)CC(=O)c1cccn1Cc1ccc(F)cc1 [L-731,988]",do not inhibit 3′ processing,inhibit strand transfer reaction
